Literature values, collected in US11911514B2, “Extended-release pharmaceutical composition containing lacosamide” (WHAN IN Pharmaceutical Company, priority 2018, dated 2024).

Tested on: patients with epilepsy
Details: taking 400 mg

## COC[C@@H](NC(C)=O)C(=O)NCc1ccccc1 [lacosamide]
  Number of patients with seizures reduced by more than 50%: 38-49%
